Assays:
[1] = test system: rat brain membrane K channels (primarily Kv1.2); type: binding
Kv1.3(D386→K) = type: cell-based
[2] = molecular target: Kv1.3 potassium channels in Jurkat T lymphocytes (Homo sapiens, UniProt P22001); type: cell-based
IKCa (hKCa4) = IKCa (hKCa4) (Homo sapiens, UniProt O15554); type: cell-based
Kv3.1 = Kv3.1 (Mus musculus, UniProt P15388); type: cell-based
Kv1.2 = Kv1.2 (Rattus norvegicus, UniProt P63142); type: cell-based
[3] = test system: pepsin A, pancreatic elastase, subtilisin, trypsin-chymotrypsin, thermolysin
[4] = molecular target: Kv1.3 channels in Jurkat T lymphocytes (Homo sapiens, UniProt P22001); type: binding
Chain of Kv1.3 channels in Jurkat T lymphocytes (P22001 whole entry): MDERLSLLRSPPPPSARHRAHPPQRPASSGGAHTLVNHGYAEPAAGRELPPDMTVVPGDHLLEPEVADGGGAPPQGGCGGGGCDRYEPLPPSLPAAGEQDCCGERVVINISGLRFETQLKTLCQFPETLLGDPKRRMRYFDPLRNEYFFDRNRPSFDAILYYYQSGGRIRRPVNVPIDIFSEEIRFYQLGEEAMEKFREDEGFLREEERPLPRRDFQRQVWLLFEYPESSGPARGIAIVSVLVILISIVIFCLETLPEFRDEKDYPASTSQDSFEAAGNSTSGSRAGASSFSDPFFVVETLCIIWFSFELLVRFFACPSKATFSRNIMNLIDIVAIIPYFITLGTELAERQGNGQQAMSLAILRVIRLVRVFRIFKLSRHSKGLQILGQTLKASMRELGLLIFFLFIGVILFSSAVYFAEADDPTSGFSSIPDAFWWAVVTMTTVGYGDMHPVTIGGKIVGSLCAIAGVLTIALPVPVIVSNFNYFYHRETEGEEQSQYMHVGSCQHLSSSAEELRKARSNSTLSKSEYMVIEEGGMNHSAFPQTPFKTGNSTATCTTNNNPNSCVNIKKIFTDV

Kv1.5 = Kv1.5 (Homo sapiens, UniProt P22460); type: cell-based
Chain of Kv1.5 (P22460 whole entry): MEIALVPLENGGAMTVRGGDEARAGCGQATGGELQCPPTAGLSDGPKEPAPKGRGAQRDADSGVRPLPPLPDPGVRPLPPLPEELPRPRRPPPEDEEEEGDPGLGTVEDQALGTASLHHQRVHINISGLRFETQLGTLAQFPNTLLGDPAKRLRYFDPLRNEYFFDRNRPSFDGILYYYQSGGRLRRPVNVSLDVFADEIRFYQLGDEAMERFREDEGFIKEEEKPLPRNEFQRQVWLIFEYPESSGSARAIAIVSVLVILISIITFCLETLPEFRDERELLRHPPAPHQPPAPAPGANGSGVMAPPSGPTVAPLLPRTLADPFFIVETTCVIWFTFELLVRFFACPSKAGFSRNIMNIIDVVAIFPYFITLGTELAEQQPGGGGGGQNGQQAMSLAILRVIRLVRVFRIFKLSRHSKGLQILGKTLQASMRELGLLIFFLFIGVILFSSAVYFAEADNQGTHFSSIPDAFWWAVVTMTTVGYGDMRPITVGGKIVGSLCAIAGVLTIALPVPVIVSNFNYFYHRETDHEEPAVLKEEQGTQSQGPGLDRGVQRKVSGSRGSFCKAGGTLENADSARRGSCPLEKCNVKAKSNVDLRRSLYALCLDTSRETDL

Kv1.3 [5] = molecular target: T1, Kv1.3 (Mus musculus, UniProt P16390); type: cell-based
T1 sequence (P16390 whole entry): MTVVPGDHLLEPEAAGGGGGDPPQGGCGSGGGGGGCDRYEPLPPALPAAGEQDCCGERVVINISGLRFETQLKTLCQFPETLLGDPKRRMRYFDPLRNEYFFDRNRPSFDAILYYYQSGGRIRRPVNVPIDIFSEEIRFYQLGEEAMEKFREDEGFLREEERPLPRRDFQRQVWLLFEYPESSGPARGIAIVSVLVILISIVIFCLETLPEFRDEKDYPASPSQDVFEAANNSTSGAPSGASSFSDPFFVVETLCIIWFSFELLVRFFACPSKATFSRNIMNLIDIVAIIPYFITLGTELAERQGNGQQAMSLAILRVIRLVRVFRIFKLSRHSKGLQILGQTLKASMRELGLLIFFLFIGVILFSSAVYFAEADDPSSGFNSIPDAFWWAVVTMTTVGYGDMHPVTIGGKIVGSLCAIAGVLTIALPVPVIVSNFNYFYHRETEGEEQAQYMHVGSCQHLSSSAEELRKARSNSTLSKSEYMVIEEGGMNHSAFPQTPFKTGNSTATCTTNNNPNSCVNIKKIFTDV

[6] = test system: Kv1.1, Kv1.2, Kv1.5, Kv3.1, hKCa4 relative to Kv1.3; type: cell-based
Kv1.3 [7] = molecular target: T1, Kv1.3; test: cell-based; type: cell-based

Chain of Kv1.3 potassium channels in Jurkat T lymphocytes (P22001 whole entry): as the sequence (P22001 whole entry) above
Chain of Kv3.1 (P15388 whole entry): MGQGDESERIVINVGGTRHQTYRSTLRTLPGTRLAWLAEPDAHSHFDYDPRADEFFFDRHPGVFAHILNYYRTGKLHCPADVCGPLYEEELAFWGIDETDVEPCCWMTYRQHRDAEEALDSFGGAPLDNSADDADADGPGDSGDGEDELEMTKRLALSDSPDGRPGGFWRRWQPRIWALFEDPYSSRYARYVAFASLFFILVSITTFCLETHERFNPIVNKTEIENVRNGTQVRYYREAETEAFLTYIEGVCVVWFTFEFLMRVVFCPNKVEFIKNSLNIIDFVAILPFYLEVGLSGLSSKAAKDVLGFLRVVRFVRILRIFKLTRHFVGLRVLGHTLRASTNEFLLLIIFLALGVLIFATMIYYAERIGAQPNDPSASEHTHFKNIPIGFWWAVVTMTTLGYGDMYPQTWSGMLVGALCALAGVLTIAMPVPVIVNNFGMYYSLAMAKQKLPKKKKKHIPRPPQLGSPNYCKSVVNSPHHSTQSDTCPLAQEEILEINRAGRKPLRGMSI
Chain of Kv1.2 (P63142 whole entry): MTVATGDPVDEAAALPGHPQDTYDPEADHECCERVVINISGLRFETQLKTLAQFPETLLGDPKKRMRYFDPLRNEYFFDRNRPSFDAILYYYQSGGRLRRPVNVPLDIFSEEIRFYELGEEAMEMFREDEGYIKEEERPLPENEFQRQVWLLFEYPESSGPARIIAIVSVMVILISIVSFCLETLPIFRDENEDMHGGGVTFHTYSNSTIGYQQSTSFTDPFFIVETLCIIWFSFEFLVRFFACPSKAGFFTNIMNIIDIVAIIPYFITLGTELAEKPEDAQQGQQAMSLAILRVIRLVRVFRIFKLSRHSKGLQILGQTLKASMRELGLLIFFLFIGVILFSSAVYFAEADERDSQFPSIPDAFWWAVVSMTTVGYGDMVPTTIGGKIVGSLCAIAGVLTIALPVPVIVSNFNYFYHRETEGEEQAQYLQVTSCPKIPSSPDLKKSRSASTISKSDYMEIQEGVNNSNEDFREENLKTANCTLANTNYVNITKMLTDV
Chain of IKCa (hKCa4) (O15554 whole entry): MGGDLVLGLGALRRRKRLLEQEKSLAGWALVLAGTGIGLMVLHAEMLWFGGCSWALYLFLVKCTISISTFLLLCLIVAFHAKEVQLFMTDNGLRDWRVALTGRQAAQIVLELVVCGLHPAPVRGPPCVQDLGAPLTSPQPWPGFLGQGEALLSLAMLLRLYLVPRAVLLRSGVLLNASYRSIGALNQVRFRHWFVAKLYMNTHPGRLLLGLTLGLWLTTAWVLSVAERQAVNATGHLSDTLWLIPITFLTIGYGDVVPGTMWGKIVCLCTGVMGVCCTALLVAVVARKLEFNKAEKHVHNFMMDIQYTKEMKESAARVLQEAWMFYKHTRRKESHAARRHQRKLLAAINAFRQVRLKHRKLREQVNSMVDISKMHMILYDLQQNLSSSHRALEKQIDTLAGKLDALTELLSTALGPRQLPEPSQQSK

Row | Compound | Equipotent Molar Ration (Analog IC50 /ShK IC50) Rat brain [1] | IC50 Ratio [1] | ΔF [1] | ΔΔG (coupling energy), mutant cycle (Kv1.3(D386→K)) | Equipotent Molar Ration (Analog IC50 /ShK IC50) Lymphocyte [2] | reduction of affinity (IC50) for Kv1.3 relative to ShK toxin [2] | IC50 ([1]; read-out: IC50 Rat Brain 125I-CTX) | hKCa4 less sensitive than Kv1.3 (IKCa (hKCa4)) | sensitivity of Kv3.1, in words (Kv3.1) | Kv1.2 less sensitive than Kv1.3 (Kv1.2) | resistance to proteolysis by porcine pepsin A, pancreatic elastase and subtilisin ([3]; […], 30° C., pH 3.0 (pepsin A), pH 6.5 (elastase, subtilisin)) | cleavage by trypsin-chymotrypsin mixture or thermolysin ([3]; pH 6.5) | Hill coefficient, [125I]-ChTX binding [4] | sensitivity of Kv1.5, in words (Kv1.5) | Hill coefficient, Kv1.3 block (Kv1.3 [5]) | other closely related channels less sensitive than Kv1.3 [6] | washout from the receptor (Kv1.3 [7])
1 | CCCC[C@@H]1NC(=O)[C@H](CCSC)NC(=O)[C@H](CO)NC(=O)[C@H](Cc2c[nH]cn2)NC(=O)[C@H](CCCCN)NC(=O)[C@@H]2CSSC[C@@H]3NC(=O)[C@H]([C@@H](C)O)NC(=O)[C@H](CCCCN)NC(=O)[C@H](CCCNC(=N)N)NC(=O)[C@H](CSSC[C@H](NC(=O)[C@H](CCCNC(=N)N)NC(=O)[C@H](CO)NC(=O)[C@H](CCCCN)NC(=O)[C@@H]4CCCN4C(=O)[C@H]([C@@H](C)CC)NC(=O)[C@H]([C@@H](C)O)NC(=O)[C@H](CC(=O)O)NC(=O)[C@H]([C@@H](C)CC)NC(=O)[C@@H](NC(=O)[C@H](CO)NC(=O)[C@@H](N)CCCNC(=N)N)CSSC[C@@H](C(=O)O)NC(=O)[C@H]([C@@H](C)O)NC(=O)CNC3=O)C(=O)N[C@@H]([C@@H](C)O)C(=O)N[C@@H](C)C(=O)N[C@@H](Cc3ccccc3)C(=O)N[C@@H](CCC(N)=O)C(=O)N2)NC(=O)[C@H](Cc2ccccc2)NC(=O)[C@H](CO)NC(=O)[C@H](CC(C)C)NC(=O)[C@H](CCCNC(=N)N)NC(=O)[C@H](Cc2ccc(O)cc2)NC1=O [K22Nle] | > 250 | > 250 | > 3.23 | 0.053 kcal/mol | > 23 | more than 23 fold |  |  |  |  |  |  |  |  |  |  | 
2 | CC[C@H](C)[C@@H]1NC(=O)[C@@H](NC(=O)[C@H](CO)NC(=O)[C@@H](N)CCCNC(=N)N)CSSC[C@@H](C(=O)O)NC(=O)[C@H]([C@@H](C)O)NC(=O)CNC(=O)[C@@H]2CSSC[C@@H]3NC(=O)[C@H](CCC(N)=O)NC(=O)[C@H](Cc4ccccc4)NC(=O)[C@H](C)NC(=O)[C@H]([C@@H](C)O)NC(=O)[C@H](CSSC[C@H](NC(=O)[C@H](Cc4ccccc4)NC(=O)[C@H](CO)NC(=O)[C@H](CC(C)C)NC(=O)[C@H](CCCNC(=N)N)NC(=O)[C@H](Cc4ccc(O)cc4)NC(=O)[C@H](CCCCN)NC(=O)[C@H](CCSC)NC(=O)[C@H](CO)NC(=O)[C@H](Cc4cnc[nH]4)NC(=O)[C@H](CCCCN)NC3=O)C(=O)N[C@@H](CCCNC(=N)N)C(=O)N[C@@H](CCCCN)C(=O)N[C@@H]([C@@H](C)O)C(=O)N2)NC(=O)[C@H](CCCNC(=N)N)NC(=O)[C@H](CO)NC(=O)[C@H](CCCCN)NC(=O)[C@@H]2CCCN2C(=O)[C@H]([C@@H](C)CC)NC(=O)[C@H]([C@@H](C)O)NC(=O)[C@H](CC(=O)O)NC1=O [ShK] |  |  | 0.0 |  |  |  | 8 nM | 100 fold | resistant to the peptide | 100 fold | completely resistant to proteolysis | readily cleaved | 0.89±0.17 | resistant to the peptide | close to unity | > 100 fold | binds almost irreversibly
